From PMC12903857 come the findings set out here.

Data set [1] deals with 80 peptides representing a diverse set of 14-3-3 clients. In words: FA selectivity panel, single point. Particulars: 10.5 μM compound, 100 nM client peptides, overnight; hit = change in anisotropy of more than 15 units.
Description: concentraton (50 μM, maximum eﬀect) was used.
giving the anisotropy change (ΔAU ) .
sele tme: 0 ms, gain: optmal).
Data set [2] concerns the target T1, 14-3-3σ/B-RAF365 (Homo sapiens, UniProt P31947).
T1 construct: full-length for mass spectrometry and fluorescence anisotropy assays; made in house; host or cells: E. coli Rosetta 2(DE3)pLysS (14-3-3σ); peptides from Elim Biopharmaceuticals
Briefly: Intact mass spectrometry assay with B-RAF365 peptide. It counts as binding. The note with it: 1 μM compound, 100 nM 14-3-3σ, 5 µM peptide.

Data set [3] concerns the target T2, 14-3-3σ/C-RAF259 (Homo sapiens, UniProt P31947). In words: Fluorescence anisotropy (FA) compound titration. Format: binding. Particulars: 10 nM C-RAF259-FAM 10-mer, 5 μΜ 14-3-3σ, overnight; read-out: Compound titrations EC50 value C-RAF259. On the technique in general: Fluorescence polarisation rises when a labelled molecule tumbles more slowly, as on binding a larger partner.

Data set [4] has as its system pERK. In words: Lumit immunoassay for pERK levels in HEK293T cells. Format: cell-based. The note with it: for time taken to modulate the pathway: pERK modulation.
Data set [5] has as its target T3, 14-3-3σ/C-RAF (Homo sapiens, UniProt P31947). Particulars: HEK293T cells, mBU compound / mBU DMSO.
Description: Stabilization of the interaction with a molecular glue was expected to lead to an increase in the intensity of the BRET signal.
Both cell lines were grown in
All compound treatments were 24 hours.
Brieﬂy, HEK293T cells were
Data set [6] has as its system N-RAS Q61L/C-RAF. The note with it: HEK293T; 100% = DMSO mBU, 0% = N-RAS/C-RAF R89L.
In data set [7] the target is T2, 14-3-3σ/C-RAF259. In words: FA protein titration, C-RAF259 peptide. The note with it: appKd DMSO / appKd compound.
Description: The following peptdes were used in the FA selectvity panel:
SOS1 pS1161: FITC-Ahx-PRRRPE{pS}APAESS-CONH2, TSC2 pS1254: FAM-Ahx-LY K S L { p S } V PA A S TA K-CONH2, ARHG2 pS886: FAM-Ahx-PVDPRRR{pS}LPAGDAL-CONH2.
Mass spectrometry dose response assays were performed on a Waters Acquity UPLC/ Xevo G2-XS Q-To f m a s s
samples prior to applicaton on the mass spectrometer. For 19-point MS dose responses, 50 mM compound stocks
transferred in the assay plates.
Assay buﬀer was TRIS (10 mM, pH 8.0) and ﬁnal volume per well was 50
μL, with ﬁnal top concentraton of compounds dose response series at 1 mM.
24 μL of sample were needed for the tme-course
(BSA; Sigma-Aldrich). Final DMSO in the assay was less than 1%. Diluton series of 14-3-3 proteins or compounds
dispensed in the assay plates. […] Ea ch compound was measured in triplicates, i n two i ndependent experi ments. Fluorescence anisotropy measurements were performed directly and a€er overnight incubaton at room temperature. The high
(10 nM) and DMSO or compound (100 µM). Fluorescence anisotropy measurements were performed a€er overnight incubaton at room temperature .
Data set [8] deals with 14-3-3σ/A-RAF214 (Homo sapiens, UniProt P31947). Briefly: Intact mass spectrometry assay with A-RAF214 peptide. The note with it: 1 μM compound, 100 nM 14-3-3σ, 16 µM peptide.
Description: (§1) Ea ch compound was measured in triplicates, i n two i ndependent experi ments. Fluorescence anisotropy measurements were performed directly and a€er overnight incubaton at room temperature.
(§2) Fluorescence anisotropy measurements were performed a€er overnight incubaton at room temperature .
Data set [9] deals with T4, 14-3-3σ (Homo sapiens, UniProt P31947).
T4 sequence (P31947 1-248): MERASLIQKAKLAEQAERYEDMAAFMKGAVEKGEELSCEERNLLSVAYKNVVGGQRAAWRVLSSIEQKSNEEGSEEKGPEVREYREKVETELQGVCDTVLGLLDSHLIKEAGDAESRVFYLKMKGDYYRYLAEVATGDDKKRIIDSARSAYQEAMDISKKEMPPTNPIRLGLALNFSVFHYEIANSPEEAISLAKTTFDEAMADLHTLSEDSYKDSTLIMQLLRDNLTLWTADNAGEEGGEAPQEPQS
In words: Intact mass spectrometry assay, apo (no peptide). It counts as binding. More on the design: full-length for mass spectrometry and fluorescence anisotropy assays; made in house; host or cells: E. coli Rosetta 2(DE3)pLysS, pPROEX HTb vector. Particulars: 1 μM compound, 100 nM 14-3-3σ.

Data set [10] deals with T2, 14-3-3σ/C-RAF259. Briefly: Intact mass spectrometry assay with C-RAF259 phospho-peptide. It counts as binding. Details: full-length for mass spectrometry and fluorescence anisotropy assays; made in house; host or cells: E. coli Rosetta 2(DE3)pLysS (14-3-3σ); peptides from Elim Biopharmaceuticals. The note with it: 1 μM compound, 100 nM 14-3-3σ, 18 µM peptide.
Data set [11] relates to pERK. Briefly: Lumit immunoassay for pERK with 14-3-3 C38N mutant. It counts as cell-based. The note with it: HEK293T.
Data set [12] in a line: Solubility in the assay conditions. The note with it: MS assay conditions. It counts as physicochemical.
In data set [13] the target is T4, 14-3-3σ. In words: FA, Kd of 15-mer RAF peptides.
Description: as §1, §2
Data set [14] concerns C-RAF/C-RAF. Particulars: with N-RAS Q61L; 100% = DMSO mBU.
Data set [15] has as its target T3, 14-3-3σ/C-RAF. Briefly: cell-based.

Values joined by “and” are separate entries in the source; they are usually repeats but may differ in a detail not shown here. Equal entries are not always repeated.

T3 sequence (P04049 whole entry partner, one chain of several): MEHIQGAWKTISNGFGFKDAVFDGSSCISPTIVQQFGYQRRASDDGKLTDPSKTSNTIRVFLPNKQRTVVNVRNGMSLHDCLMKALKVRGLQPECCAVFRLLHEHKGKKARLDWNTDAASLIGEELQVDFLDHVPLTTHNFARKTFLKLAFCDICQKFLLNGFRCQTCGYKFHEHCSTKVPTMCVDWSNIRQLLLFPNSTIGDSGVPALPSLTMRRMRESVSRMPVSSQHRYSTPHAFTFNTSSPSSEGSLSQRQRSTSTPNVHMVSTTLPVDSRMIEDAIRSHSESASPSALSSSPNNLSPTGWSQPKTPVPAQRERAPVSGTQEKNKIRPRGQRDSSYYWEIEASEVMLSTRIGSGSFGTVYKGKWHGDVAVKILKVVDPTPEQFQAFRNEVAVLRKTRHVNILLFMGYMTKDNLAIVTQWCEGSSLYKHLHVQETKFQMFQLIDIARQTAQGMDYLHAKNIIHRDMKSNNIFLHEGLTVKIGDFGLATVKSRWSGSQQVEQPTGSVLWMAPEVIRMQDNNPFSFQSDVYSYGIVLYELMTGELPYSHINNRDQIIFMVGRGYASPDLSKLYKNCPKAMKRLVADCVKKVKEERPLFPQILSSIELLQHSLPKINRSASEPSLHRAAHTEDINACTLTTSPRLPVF

Take `O=C(CCl)NCC1CCN(S(=O)(=O)c2ccc(Br)cc2)CC1` [Compound 22]: the “clients emerged as hits” value in data set [1] is “six”.

Consider `O=C(CCl)NCC1CCN(S(=O)(=O)Cc2cccc(F)c2)CC1` [Compound 8], for which, in data set [2] (1 h), the “% bound, B-RAF365 (10mer), 1h” value came to 0% and the “% bound, B-RAF365 (15mer), 1h” value is 0%. Moreover, in data set [2] (8 h), the “% bound, B-RAF365 (10mer), 8h” value is listed as 0% and the “% bound, B-RAF365 (15mer), 8h” value turned out to be 0%. Also, in data set [2] (16 h), the “% bound, B-RAF365 (10mer), 16h” value is on record as 2.5% and the “% bound, B-RAF365 (15mer), 16h” value is on record as 0.9%. Moreover, in data set [2] (24 h), the “% bound, B-RAF365 (10mer), 24h” value is 2.5% and the “% bound, B-RAF365 (15mer), 24h” value is given as 3.8%. In data set [3], the EC50 is greater than 1000 µM. In addition, the “effect on phosphorylation of ERK” value in [4] (HEK293T, 24 h, EGF stimulation, 23 at 10 μM) is listed as “No effect”. In addition, in [5], the “14-3-3/C-RAF NanoBRET fold stab.” value is “No increase”. The “reduction of the N-RAS Q61L/C-RAF interaction” value (shortened to “reduction”) in data set [6] is “did not affect”. Besides, in [7], the “Fold stabilization (100 µM compound), C-RAF259 (10mer)” value is on record as “lacked an effect”. Also, the “Fold stabilization (100 µM compound), C-RAF259 (10mer)” value in data set [7] (listed as (8)) was determined as 1 fold. Moreover, the “% bound, A-RAF214 (15mer), 1h” value in data set [8] (1 h) was determined as 0%. Further, the “% bound, A-RAF214 (15mer), 8h” value in [8] (8 h) stood at 0%. The “% bound, A-RAF214 (15mer), 16h” value in [8] (16 h) came out at 0%. Besides, the “% bound, A-RAF214 (15mer), 24h” value in data set [8] (24 h) worked out at 0%. For the same compound, the “% bound, APO, 1h” value in data set [9] (1 h) was 0%. The “% bound, APO, 8h” value in data set [9] (8 h) was determined as 0%. Also, the “% bound, APO, 16h” value in data set [9] (16 h) was found to be 1.9%. The “% bound, APO, 24h” value in [9] (24 h) turned out to be 2.9%. Further, in data set [10] (1 h), the “% bound, C-RAF259 (11mer), 1h” value was 2.9% and 0%; the “% bound, C-RAF259 (15mer), 1h” value turned out to be 0%. Besides, in data set [10] (8 h), the “% bound, C-RAF259 (11mer), 8h” value was 5.6% and 0%; the “% bound, C-RAF259 (15mer), 8h” value is given as 0%. Also, in [10] (16 h), the “% bound, C-RAF259 (11mer), 16h” value is 5.6% and the “% bound, C-RAF259 (15mer), 16h” value was determined as 0%. In addition, in data set [10] (24 h), the “% bound, C-RAF259 (11mer), 24h” value was 5.6% and 2.9%; the “% bound, C-RAF259 (15mer), 24h” value is reported as 0%.

On to `CC(=O)Nc1cccc(-n2c(=O)n(C3CC3)c(=O)c3c(Nc4ccc(I)cc4F)n(C)c(=O)c(C)c32)c1` [Trametinib, reference compound], for which, in [4], the “time taken to modulate the pathway” value is listed as 3 h. Besides, the “effect on pERK with the C38N mutant” value in data set [11] is “same effect”.

`CNc1ncc2cc(-c3cc(NC(=O)NCCC(C)(C)C)c(F)cc3C)c(C)nc2n1` [LY3009120, reference compound]: the “time taken to modulate the pathway” value in [4] is given as 3 h.

Turning to `O=C(CCl)N1CC2(C1)CN(S(=O)(=O)c1ccc(I)cc1)CCO2` [Compound 79], the EC50 in data set [3] came to 2 ± 1 µM. Moreover, in data set [12], the “solubility in the assay conditions” value is “poor solubility”.

Turning to `CC[C@H](C)[C@H](NC(=O)[C@H](CCCNC(=N)N)NC(=O)[C@H](CCC(N)=O)NC(=O)[C@H](CC(C)C)NC(=O)c1ccc2c(c1)C(=O)OC21c2ccc(O)cc2Oc2cc(O)ccc21)C(=O)N[C@@H](CCCNC(=N)N)C(=O)N[C@@H](CO)C(=O)N[C@H](C(=O)N[C@@H](COP(=O)(O)O)C(=O)N[C@H](C(=O)N1CCC[C@H]1C(=O)N[C@@H](CC(N)=O)C(=O)N[C@H](C(=O)N[C@@H](Cc1c[nH]cn1)C(=O)N[C@@H](CCSC)C(=O)N[C@H](C(N)=O)C(C)C)C(C)C)[C@@H](C)O)[C@@H](C)O` [A-RAF 15-mer], in [13], the Kd – broadly, the concentration at which binding is half-saturated – lay in the range of 8 to 10 µM.

On to `O=C(CCl)N1CC2(C1)CN(S(=O)(=O)c1ccc(Br)c(F)c1)CCO2` [Compound 70], for which the EC50 in [3] worked out at 2 µM. In addition, in data set [14], the “decrease in C-RAF homodimer formation” value is roughly 20%. Also, in [6], the “reduction” value is given as “no clear trend”.

`CSCC[C@H](NC(=O)[C@H](Cc1c[nH]cn1)NC(=O)[C@@H](NC(=O)[C@H](CC(N)=O)NC(=O)[C@@H]1CCCN1C(=O)[C@@H](NC(=O)[C@H](COP(=O)(O)O)NC(=O)[C@@H](NC(=O)[C@H](CO)NC(=O)[C@H](CCCNC(=N)N)NC(=O)[C@H](CCC(N)=O)NC(=O)[C@H](CCCNC(=N)N)NC(=O)[C@H](CCC(N)=O)NC(=O)[C@H](CO)NC(=O)c1ccc2c(c1)C(=O)OC21c2ccc(O)cc2Oc2cc(O)ccc21)[C@@H](C)O)[C@@H](C)O)C(C)C)C(=O)N[C@H](C(N)=O)C(C)C` [C-RAF 15-mer, 5-FAM-SQRQRST{pS}TPNVHMV-CONH2] yielded a Kd in data set [13] of 8 to 10 µM.

Take `O=C(CCl)N1CC2(C1)CN(S(=O)(=O)c1ccc(Br)cc1)CCO2` [Compound 78]: the figures for the EC50 in data set [3] and in data set [15] were 2 ± 1 µM and 1.2 µM, respectively. Besides, the “solubility in the assay conditions” value in data set [12] is “poor solubility”. Also, the “decrease in C-RAF homodimer formation” value in data set [14] is reported as roughly 20%. The “reduction” value in data set [6] was “no clear trend”.
